In BindingDB's records for doi:10.1016/j.bmcl.2004.09.058 (Schering-Plough Research Institute, 2004):

Molecular target: Genome polyprotein (Hepatitis C virus genotype 1a (isolate H77), UniProt P27958)
Test: Continuous Spectrophotometric Assay
Conditions: pH 6.5; 30 °C
Method: Proteolytic cleavage of the ester linkage between the Nva (L-norvaline) and the chromophore (PAP) was monitored for change in absorbance at 370 nm. Initial velocities were determined using linear regression and kinetic constants were obtained by fitting the data to the Michaelis-Menten equation.

Sequence of Genome polyprotein (P27958 1027-1657 limits assumed): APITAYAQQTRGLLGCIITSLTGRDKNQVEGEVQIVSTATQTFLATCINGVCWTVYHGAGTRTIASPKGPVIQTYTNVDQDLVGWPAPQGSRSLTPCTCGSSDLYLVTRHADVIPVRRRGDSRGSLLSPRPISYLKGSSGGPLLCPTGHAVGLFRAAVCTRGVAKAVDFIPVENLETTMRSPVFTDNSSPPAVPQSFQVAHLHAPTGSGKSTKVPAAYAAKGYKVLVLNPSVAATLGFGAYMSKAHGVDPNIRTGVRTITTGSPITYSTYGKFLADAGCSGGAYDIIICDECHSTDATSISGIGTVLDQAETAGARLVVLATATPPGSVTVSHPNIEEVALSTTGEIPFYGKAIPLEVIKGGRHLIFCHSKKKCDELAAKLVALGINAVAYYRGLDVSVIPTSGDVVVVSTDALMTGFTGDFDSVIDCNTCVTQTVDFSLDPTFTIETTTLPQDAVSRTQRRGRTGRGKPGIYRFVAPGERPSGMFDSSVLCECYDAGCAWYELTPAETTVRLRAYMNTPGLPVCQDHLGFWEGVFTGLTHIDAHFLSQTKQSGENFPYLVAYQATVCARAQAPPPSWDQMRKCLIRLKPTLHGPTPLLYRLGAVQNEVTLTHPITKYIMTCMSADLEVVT

| SMILES | Ki |
| --- | --- |
| C=CCOC(=O)CNC(=O)C(=O)C(CCC)NC(=O)[C@@H]1CN(Cc2ccccc2)C(=O)N1C(=O)[C@@H](NC(=O)[C@@H](NC(=O)[C@H](CCC(=O)O)NC(=O)[C@H](CCC(=O)O)NC(C)=O)C(C)C)C(C)C (stereo partly drawn) [(4S)-4-{[(1S)-1-{[(1S)-1-{[(2S)-1-[(5S)-3-benzyl-2-oxo-5-[(1-oxo-1-{[2-oxo-2-(prop-2-en-1-yloxy)ethyl]carbamoyl}pentan-2-yl)carbamoyl]imidazolidin-1-yl]-3-methyl-1-oxobutan-2-yl]carbamoyl}-2-methylpropyl]carbamoyl}-3-carboxypropyl]carbamoyl}-4-acetamidobutanoic acid] | 1 µM |
| C=CCNC(=O)C(=O)C(CCC)NC(=O)[C@@H]1CN(Cc2ccccc2)C(=O)N1C(=O)[C@@H](NC(=O)[C@@H](NC(=O)[C@H](CCC(=O)O)NC(=O)[C@H](CCC(=O)O)NC(C)=O)C(C)C)C(C)C (stereo partly drawn) [(4S)-4-{[(1S)-1-{[(1S)-1-{[(2S)-1-[(5S)-3-benzyl-2-oxo-5-{[1-oxo-1-(prop-2-en-1-ylcarbamoyl)pentan-2-yl]carbamoyl}imidazolidin-1-yl]-3-methyl-1-oxobutan-2-yl]carbamoyl}-2-methylpropyl]carbamoyl}-3-carboxypropyl]carbamoyl}-4-acetamidobutanoic acid] | 1 µM |
| C=CCNC(=O)C(=O)C(CCC)NC(=O)[C@@H]1CN(CC(=O)OCC)C(=O)N1C(=O)[C@@H](NC(=O)[C@@H](NC(=O)[C@H](CCC(=O)O)NC(=O)[C@H](CCC(=O)O)NC(C)=O)C(C)C)C(C)C (stereo partly drawn) [(4S)-4-{[(1S)-3-carboxy-1-{[(1S)-1-{[(2S)-1-[(5S)-3-(2-ethoxy-2-oxoethyl)-2-oxo-5-{[1-oxo-1-(prop-2-en-1-ylcarbamoyl)pentan-2-yl]carbamoyl}imidazolidin-1-yl]-3-methyl-1-oxobutan-2-yl]carbamoyl}-2-methylpropyl]carbamoyl}propyl]carbamoyl}-4-acetamidobutanoic acid] | 4 µM |
| C=CCOC(=O)CNC(=O)C(=O)C(CCC)NC(=O)[C@@H]1CN(Cc2ccc(Cl)c(Cl)c2)C(=O)N1C(=O)[C@@H](NC(=O)[C@@H](NC(=O)[C@H](CCC(=O)O)NC(=O)[C@H](CCC(=O)O)NC(C)=O)C(C)C)C(C)C (stereo partly drawn) [(4S)-4-{[(1S)-3-carboxy-1-{[(1S)-1-{[(2S)-1-[(5S)-3-[(3,4-dichlorophenyl)methyl]-2-oxo-5-[(1-oxo-1-{[2-oxo-2-(prop-2-en-1-yloxy)ethyl]carbamoyl}pentan-2-yl)carbamoyl]imidazolidin-1-yl]-3-methyl-1-oxobutan-2-yl]carbamoyl}-2-methylpropyl]carbamoyl}propyl]carbamoyl}-4-acetamidobutanoic acid] | 0.31 µM |
| C=CCNC(=O)C(=O)C(CCC)NC(=O)[C@@H]1CNC(=O)N1C(=O)[C@@H](NC(=O)[C@@H](NC(=O)[C@H](CCC(=O)O)NC(=O)[C@H](CCC(=O)O)NC(C)=O)C(C)C)C(C)C (stereo partly drawn) [(4S)-4-{[(1S)-3-carboxy-1-{[(1S)-2-methyl-1-{[(2S)-3-methyl-1-oxo-1-[(5S)-2-oxo-5-{[1-oxo-1-(prop-2-en-1-ylcarbamoyl)pentan-2-yl]carbamoyl}imidazolidin-1-yl]butan-2-yl]carbamoyl}propyl]carbamoyl}propyl]carbamoyl}-4-acetamidobutanoic acid] | 46 µM |
| C=CCNC(=O)C(=O)C(CCC)NC(=O)[C@@H]1CN(CC(=O)OCC)C(=O)N1C(=O)[C@@H](NC(=O)[C@@H](NC(=O)OCC(C)C)C(C)C)C(C)C (stereo partly drawn) [ethyl 2-[(4S)-3-[(2S)-3-methyl-2-[(2S)-3-methyl-2-{[(2-methylpropoxy)carbonyl]amino}butanamido]butanoyl]-2-oxo-4-{[1-oxo-1-(prop-2-en-1-ylcarbamoyl)pentan-2-yl]carbamoyl}imidazolidin-1-yl]acetate] | 78 µM |
| C=CCOC(=O)CNC(=O)C(=O)C(CCC)NC(=O)[C@@H]1CN(Cc2ccccc2)C(=O)N1C(=O)[C@@H](NC(=O)[C@@H](NC(=O)[C@H](CCC(=O)OC(C)(C)C)NC(=O)[C@H](CCC(=O)OC(C)(C)C)NC(C)=O)C(C)C)C(C)C (stereo partly drawn) [tert-butyl (4S)-4-{[(1S)-1-{[(1S)-1-{[(2S)-1-[(5S)-3-benzyl-2-oxo-5-[(1-oxo-1-{[2-oxo-2-(prop-2-en-1-yloxy)ethyl]carbamoyl}pentan-2-yl)carbamoyl]imidazolidin-1-yl]-3-methyl-1-oxobutan-2-yl]carbamoyl}-2-methylpropyl]carbamoyl}-4-(tert-butoxy)-4-oxobutyl]carbamoyl}-4-acetamidobutanoate] | > 100 µM |
| C=CCNC(=O)C(=O)C(CCC)NC(=O)[C@@H]1CN(Cc2ccccc2)C(=O)N1C(=O)[C@@H](NC(=O)[C@@H](NC(=O)[C@H](CCC(=O)OC(C)(C)C)NC(=O)[C@H](CCC(=O)OC(C)(C)C)NC(C)=O)C(C)C)C(C)C (stereo partly drawn) [tert-butyl (4S)-4-{[(1S)-1-{[(1S)-1-{[(2S)-1-[(5S)-3-benzyl-2-oxo-5-{[1-oxo-1-(prop-2-en-1-ylcarbamoyl)pentan-2-yl]carbamoyl}imidazolidin-1-yl]-3-methyl-1-oxobutan-2-yl]carbamoyl}-2-methylpropyl]carbamoyl}-4-(tert-butoxy)-4-oxobutyl]carbamoyl}-4-acetamidobutanoate] | 61 µM |
| C=CCNC(=O)C(=O)C(CCC)NC(=O)[C@@H]1CN(CC(=O)OCC)C(=O)N1C(=O)[C@@H](NC(=O)[C@@H](NC(=O)[C@H](CCC(=O)OC(C)(C)C)NC(=O)[C@H](CCC(=O)OC(C)(C)C)NC(C)=O)C(C)C)C(C)C (stereo partly drawn) [tert-butyl (4S)-4-{[(1S)-4-(tert-butoxy)-1-{[(1S)-1-{[(2S)-1-[(5S)-3-(2-ethoxy-2-oxoethyl)-2-oxo-5-{[1-oxo-1-(prop-2-en-1-ylcarbamoyl)pentan-2-yl]carbamoyl}imidazolidin-1-yl]-3-methyl-1-oxobutan-2-yl]carbamoyl}-2-methylpropyl]carbamoyl}-4-oxobutyl]carbamoyl}-4-acetamidobutanoate] | 30 µM |
| C=CCOC(=O)CNC(=O)C(=O)C(CCC)NC(=O)[C@@H]1CN(Cc2ccc(Cl)c(Cl)c2)C(=O)N1C(=O)[C@@H](NC(=O)[C@@H](NC(=O)[C@H](CCC(=O)OC(C)(C)C)NC(=O)[C@H](CCC(=O)OC(C)(C)C)NC(C)=O)C(C)C)C(C)C (stereo partly drawn) [tert-butyl (4S)-4-{[(1S)-4-(tert-butoxy)-1-{[(1S)-1-{[(2S)-1-[(5S)-3-[(3,4-dichlorophenyl)methyl]-2-oxo-5-[(1-oxo-1-{[2-oxo-2-(prop-2-en-1-yloxy)ethyl]carbamoyl}pentan-2-yl)carbamoyl]imidazolidin-1-yl]-3-methyl-1-oxobutan-2-yl]carbamoyl}-2-methylpropyl]carbamoyl}-4-oxobutyl]carbamoyl}-4-acetamidobutanoate] | > 100 µM |
| C=CCNC(=O)C(=O)C(CCC)NC(=O)[C@@H]1CNC(=O)N1C(=O)[C@@H](NC(=O)[C@@H](NC(=O)[C@H](CCC(=O)OC(C)(C)C)NC(=O)[C@H](CCC(=O)OC(C)(C)C)NC(C)=O)C(C)C)C(C)C (stereo partly drawn) [tert-butyl (4S)-4-{[(1S)-4-(tert-butoxy)-1-{[(1S)-2-methyl-1-{[(2S)-3-methyl-1-oxo-1-[(5S)-2-oxo-5-{[1-oxo-1-(prop-2-en-1-ylcarbamoyl)pentan-2-yl]carbamoyl}imidazolidin-1-yl]butan-2-yl]carbamoyl}propyl]carbamoyl}-4-oxobutyl]carbamoyl}-4-acetamidobutanoate] | 69 µM |
